# Assay results from US20240208912A1 (Mirati Therapeutics, Inc., priority 2021, published 2024).
# Structures can show the parent of a compound that is named as a salt. Where two headings read alike, the source gives them in different places.
# Columns and labels:
# PRMT5/MEP50 complex = target: T1, PRMT5/MEP50 complex (Homo sapiens, UniProt O14744); experiment: PRMT5:MEP50 HotSpot Assay (full-length histone H2A substrate, plus and minus MTA); assay type: biochemical; details: IC50 + 2 μM MTA, in the presence of 2 μM MTA
# T1 construct: purchased Reaction Biology Corporation
# Summary of the method: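 Tritiated product on full-length recombinant H2A was counted by scintillation after the stopped reaction was captured on filter paper. Substrate is histone H2A; conditions include plus and minus MTA.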
# [1] = test system: HCT116 homozygous MTAP knockout cells; experiment: Proliferation assay (CellTiter-Glo, 10 days) in HCT116 homozygous MTAP knockout cells; assay type: cell-based; details: CellTiter-Glo after 10 days of treatment, read-out: Proliferation IC50 (nM) HCT116 MTAP_KO
# Summary of the method: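 CellTiter-Glo viability read on day 11 gives a 10-day IC50. Dosing began one day after seeding, with a 1:10 split into fresh drug-containing medium on day 6. Cells are HCT116 lacking both MTAP alleles via CRISPR/Cas9, run alongside the parental line.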
# T1 sequence (O14744 2-637 limits assumed): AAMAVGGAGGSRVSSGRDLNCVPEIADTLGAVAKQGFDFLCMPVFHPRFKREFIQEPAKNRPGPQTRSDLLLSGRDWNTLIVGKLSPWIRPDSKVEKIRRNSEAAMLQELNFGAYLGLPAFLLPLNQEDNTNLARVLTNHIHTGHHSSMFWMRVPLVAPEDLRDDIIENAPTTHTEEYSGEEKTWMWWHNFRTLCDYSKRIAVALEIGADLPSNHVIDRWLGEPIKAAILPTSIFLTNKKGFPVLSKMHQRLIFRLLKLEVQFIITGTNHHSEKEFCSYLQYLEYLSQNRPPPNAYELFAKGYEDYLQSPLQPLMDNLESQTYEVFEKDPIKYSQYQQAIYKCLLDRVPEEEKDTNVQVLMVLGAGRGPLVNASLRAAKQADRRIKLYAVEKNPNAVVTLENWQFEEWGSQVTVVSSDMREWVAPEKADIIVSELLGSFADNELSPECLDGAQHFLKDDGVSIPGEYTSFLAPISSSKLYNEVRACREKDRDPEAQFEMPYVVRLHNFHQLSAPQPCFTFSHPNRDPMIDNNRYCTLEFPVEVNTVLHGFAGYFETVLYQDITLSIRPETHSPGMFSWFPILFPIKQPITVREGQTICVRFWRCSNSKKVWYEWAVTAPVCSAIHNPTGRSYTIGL
# T1 sequence (Q9BQA1 2-342 partner limits assumed): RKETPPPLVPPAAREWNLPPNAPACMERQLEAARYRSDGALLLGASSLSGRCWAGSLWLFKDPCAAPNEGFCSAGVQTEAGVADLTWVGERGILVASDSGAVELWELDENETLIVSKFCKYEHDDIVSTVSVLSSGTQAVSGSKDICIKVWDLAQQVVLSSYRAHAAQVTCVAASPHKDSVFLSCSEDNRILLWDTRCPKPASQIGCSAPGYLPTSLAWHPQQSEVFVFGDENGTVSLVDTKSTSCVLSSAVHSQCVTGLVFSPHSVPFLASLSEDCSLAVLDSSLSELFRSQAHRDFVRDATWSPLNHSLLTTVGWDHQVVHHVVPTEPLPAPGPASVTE
Compound,IC50 (PRMT5/MEP50 complex) [nM],"IC50 ([1]; Homo sapiens, HCT-116, 240 h) [nM]",IC50 [1] [nM]
"CCOc1cc(-c2cnn(C)c2-c2c(F)c(C)c3cc(Cl)cnc3c2C#N)cc2c(CN)n[nH]c(=O)c12 (single isomer, unassigned) [Example 16-99, (P)-7-(4-(4-(aminomethyl)-8-ethoxy-1-oxo-1,2-dihydrophthalazin-6-yl)-1-methyl-1H-pyrazol-5-yl)-3-chloro-6-fluoro-5-methylquinoline-8-carbonitrile]",9870,10000,
"Cn1ncc(-c2ccc3c(=O)[nH]c4c(c3c2)CCNC4)c1-c1sc2ccccc2c1C#N [Example 18-1, 2-(1-methyl-4-(6-oxo-1,2,3,4,5,6-hexahydrobenzo[c][1,7]naphthyridin-9-yl)-1H-pyrazol-5-yl)benzo[b]thiophene-3-carbonitrile]",> 10000,4140,
"Cc1cc(-c2c(-c3ccc4c(=O)[nH]nc(CN)c4c3)cnn2C)n2c1CCCC2=O [Example 4-257, 4-(aminomethyl)-6-[1-methyl-5-(1-methyl-5-oxo-7,8-dihydro-6H-indolizin-3-yl)pyrazol-4-yl]-2H-phthalazin-1-one]",547,618,
"Cc1cnc2c(C#N)c(-c3c(-c4ccc5c(=O)[nH]nc(CN)c5c4)cnn3C)c(F)c(C)c2c1 (atropisomer, axis not shown; (M)) [Example 16-94, (M)-7-(4-(4-(aminomethyl)-1-oxo-1,2-dihydrophthalazin-6-yl)-1-methyl-1H-pyrazol-5-yl)-6-fluoro-3,5-dimethylquinoline-8-carbonitrile]",1140,,231
"CCOc1cc(-c2cnn(C)c2-c2c(F)ccc(OC3CC3)c2C#N)cc2c(CN)n[nH]c(=O)c12 (atropisomer, axis not shown; (M)) [Example 16-74, (M)-2-[4-[4-(aminomethyl)-8-ethoxy-1-oxo-2H-phthalazin-6-yl]-2-methyl-pyrazol-3-yl]-6-(cyclopropoxy)-3-fluoro-benzonitrile]",346,,158
"Cn1ncc(-c2cc(Cl)c3c(=O)[nH]nc(CN)c3c2)c1-c1c(F)c(Cl)c2ccccc2c1C#N (single isomer, unassigned) [Example 16-57, (P)-2-[4-[4-(aminomethyl)-8-chloro-1-oxo-2H-phthalazin-6-yl]-2-methyl-pyrazol-3-yl]-4-chloro-3-fluoro-naphthalene-1-carbonitrile]",253,,339
"Cn1ncc(-c2ccc3c(=O)[nH]nc(CN)c3c2)c1-c1sc2cnccc2c1C#N [Example 4-273, 2-[4-[4-(aminomethyl)-1-oxo-2H-phthalazin-6-yl]-2-methyl-pyrazol-3-yl]thieno[2,3-c]pyridine-3-carbonitrile]",376,1440,
"COCc1cccc2c(C#N)c(-c3c(-c4ccc5c(=O)[nH]nc(CN)c5c4)cnn3C)sc12 [Example 12-20, 2-[4-[4-(aminomethyl)-1-oxo-2H-phthalazin-6-yl]-2-methyl-pyrazol-3-yl]-7-(methoxymethyl) benzothiophene-3-carbonitrile hydrochloride]",183,269,
"C[C@H]1C[C@@H]1Oc1ccc(F)c(-c2c(-c3ccc4c(=O)[nH]nc(CN)c4c3)cnn2C)c1C#N (single isomer, unassigned) [Example 16-67]",269,,241
"Cn1ncc(-c2ccc3c(=O)[nH]nc(CN)c3c2)c1-c1c(C#N)cc2ncccc2c1F (single isomer, unassigned) [Example 16-92, (M)-6-[4-[4-(aminomethyl)-1-oxo-2H-phthalazin-6-yl]-2-methyl-pyrazol-3-yl]-5-fluoro-quinoline-7-carbonitrile]",2040,,403
"Cn1ncc(-c2ccc3c(=O)[nH]nc(CN)c3c2)c1-c1ccc2n1C(=O)CC2 [Example 4-260, 4-(aminomethyl)-6-[1-methyl-5-(5-oxo-6,7-dihydropyrrolizin-3-yl)pyrazol-4-yl]-2H-phthalazin-1-one]",575,2680,
"Cn1ncc(-c2ccc3c(=O)[nH]nc(C4CCN4)c3c2)c1-c1sc2ccccc2c1C#N (stereo not shown) [Example 9-11, 2-(4-(4-(azetidin-2-yl)-1-oxo-1,2-dihydrophthalazin-6-yl)-1-methyl-1H-pyrazol-5-yl)benzo[b]thiophene-3-carbonitrile]",1440,2370,
"Cn1ncc(-c2ccc3c(=O)[nH]nc(CN)c3c2)c1-c1c(F)cc2c(c1C#N)OCCO2 (single isomer, unassigned) [Example 16-90, (M)-6-[4-[4-(aminomethyl)-1-oxo-2H-phthalazin-6-yl]-2-methyl-pyrazol-3-yl]-7-fluoro-2,3-dihydro-1,4-benzodioxine-5-carbonitrile]",248,,138

# These reach a lower IC50 (PRMT5/MEP50 complex). Values come first.
IC50 (PRMT5/MEP50 complex) [nM],"IC50 ([1]; Homo sapiens, HCT-116, 240 h) [nM]",IC50 [1] [nM],Compound
102,400,,"Cn1ncc(-c2ccc3c(=O)[nH]nc(CN)c3c2)c1-c1sc2cc(Cl)ccc2c1C#N [Example 4-270, 2-(4-(4-(aminomethyl)-1-oxo-1,2-dihydrophthalazin-6-yl)-1-methyl-1H-pyrazol-5-yl)-6-chlorobenzo-[b]thiophene-3-carbonitrile]"
107,,35,"C[C@@H]1C[C@H]1Oc1ccc(F)c(-c2c(-c3ccc4c(=O)[nH]nc(CN)c4c3)cnn2C)c1C#N (atropisomer, axis not shown; (M)) [Example 16-66, (M)-2-(4-(4-(aminomethyl)-1-oxo-1,2-dihydrophthalazin-6-yl)-1-methyl-1H-pyrazol-5-yl)-3-fluoro-6-((1R,2R)-2-methylcyclopropoxy)benzonitrile]"
19.3,,16,"Cn1ncc(-c2ccc3c(=O)[nH]nc(CN)c3c2)c1-c1c(F)cc2ncc(Cl)cc2c1C#N (single isomer, unassigned) [Example 16-31, (M)-6-[4-[4-(aminomethyl)-1-oxo-2H-phthalazin-6-yl]-2-methyl-pyrazol-3-yl]-3-chloro-7-fluoro-quinoline-5-carbonitrile]"
102,,5,"Cn1ncc(-c2cc(Cl)c3c(=O)[nH]nc(CN)c3c2)c1-c1c(F)cc2ccccc2c1C#N (single isomer, unassigned) [Example 16-11, (P)-2-(4-(4-(aminomethyl)-8-chloro-1-oxo-1,2-dihydrophthalazin-6-yl)-1-methyl-1H-pyrazol-5-yl)-3-fluoro-1-naphthonitrile]"
146,587,,"CCn1ncc(-c2ccc3c(=O)[nH]nc(CN)c3c2)c1-c1sc2ccccc2c1C#N [Example 19-1, 2-[4-[4-(aminomethyl)-1-oxo-2H-phthalazin-6-yl]-2-ethyl-pyrazol-3-yl]benzothiophene-3-carbonitrile]"
8.25,,33,"CCOc1cc(-c2cnn(C)c2-c2c(F)c(Cl)c3ccccc3c2C#N)cc2c(CN)n[nH]c(=O)c12 (single isomer, unassigned) [Example 16-79, (P)-2-[4-[4-(aminomethyl)-8-ethoxy-1-oxo-2H-phthalazin-6-yl]-2-methyl-pyrazol-3-yl]-4-chloro-3-fluoro-naphthalene-1-carbonitrile]"
42.1,9,,"CCOc1cc(-c2cnn(C)c2-c2c(F)c(C)c3ccccc3c2C#N)cc2c(CN)n[nH]c(=O)c12 (single isomer, unassigned) [Example 16-81, (P)-2-[4-[4-(aminomethyl)-8-ethoxy-1-oxo-2H-phthalazin-6-yl]-2-methyl-pyrazol-3-yl]-3-fluoro-4-methyl-naphthalene-1-carbonitrile]"
